“And” between values parts separate entries of the source, which are not always exact repeats. Equal values may be shown once. Toxic doses and inconclusive results are not listed. Rule for the calls: active = survival T/C of 150% or more; inactive = T/C below 125% in these data.
System: CD2F1 mice, L1210 leukemia ip, survival T/C
Assay: NCI In Vivo Anticancer Drug Screen. Data for tumor model L1210 Leukemia (intraperitoneal) in CD2F1 (CDF1) mice
Conditions: higher = longer survival
How it was run: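 Read-out first: treated-group measurement over vehicle-control measurement, expressed as a ratio. Animals bore a transplanted tumor line and were dosed with compound or vehicle.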

[1] = endpoint: mean survival time, dose: 100.0 mg/kg/injection, schedule: Q01DX009 (ip), vehicle: saline with Tween-80
[2] = endpoint: mean survival time, dose: 200.0 mg/kg/injection, schedule: Q01DX009 (ip), vehicle: saline with Tween-80
[3] = endpoint: mean survival time, dose: 400.0 mg/kg/injection, schedule: Q01DX009 (ip), vehicle: saline with Tween-80
[4] = endpoint: mean survival time, dose: 12.5 mg/kg/injection, schedule: Q01DX009 (ip), vehicle: saline with Tween-80
[5] = endpoint: mean survival time, dose: 25.0 mg/kg/injection, schedule: Q01DX009 (ip), vehicle: saline with Tween-80
[6] = endpoint: mean survival time, dose: 50.0 mg/kg/injection, schedule: Q01DX009 (ip), vehicle: saline with Tween-80
[7] = endpoint: mean survival time, dose: 100.0 mg/kg/injection, schedule: Q04DX003 (ip), vehicle: saline with Tween-80
[8] = endpoint: mean survival time, dose: 200.0 mg/kg/injection, schedule: Q04DX003 (ip), vehicle: saline with Tween-80
[9] = endpoint: mean survival time, dose: 400.0 mg/kg/injection, schedule: Q04DX003 (ip), vehicle: saline with Tween-80
[10] = endpoint: mean survival time, dose: 100.0 mg/kg/injection, schedule: Q04DX002 (ip), vehicle: saline
[11] = endpoint: mean survival time, dose: 200.0 mg/kg/injection, schedule: Q04DX002 (ip), vehicle: saline
[12] = endpoint: mean survival time, dose: 50.0 mg/kg/injection, schedule: Q04DX003 (ip), vehicle: saline
[13] = endpoint: mean survival time, dose: 100.0 mg/kg/injection, schedule: Q04DX002 (ip), vehicle: saline with Tween-80
[14] = endpoint: mean survival time, dose: 25.0 mg/kg/injection, schedule: Q04DX003 (ip), vehicle: saline

Measured: T/C

COc1ccc(NC(=O)C(c2ccccc2)c2ccccc2)cc1
inactive: [1] 105 % of control | [2] 102 % of control | [3] 92 % of control

[Cl][Pt+2]([Cl])([Cl])[Cl].[NH-]C1CCCCC1.[NH-]C1CCCCC1
inactive: [4] 96 % of control | [5] 91 % of control | [6] 100 % of control | [1] 89 % of control

CCOC(=O)NC1CC(OC(=O)c2ccc(C)cc2)C(COC(=O)c2ccc(C)cc2)O1 (centres undefined)
inactive: [1] 95 % of control | [2] 92 % of control | [3] 100 % of control

O=[N+]([O-])c1cccc(SNc2cccc(Cl)c2)c1
inactive: [5] 102 % of control | [6] 90 % of control | [1] 94 % of control

CCOC(=O)Cc1cnc(SC)[nH]c1=O
inactive: endpoint: mean survival time, dose: 50.0 mg/kg/injection, schedule: Q04DX003 (ip), vehicle: Klucel (hydroxypropylcellulose) (HPC) 111 % of control | endpoint: mean survival time, dose: 100.0 mg/kg/injection, schedule: Q04DX003 (ip), vehicle: Klucel (hydroxypropylcellulose) (HPC) 106 % of control | endpoint: mean survival time, dose: 200.0 mg/kg/injection, schedule: Q04DX003 (ip), vehicle: Klucel (hydroxypropylcellulose) (HPC) 106 % of control | endpoint: mean survival time, dose: 600.0 mg/kg/injection, schedule: Q04DX003 (ip), vehicle: Klucel (hydroxypropylcellulose) (HPC) 100 % of control

OC(c1ccccc1Cl)C(Cl)(Cl)Cl (centres undefined)
inactive: endpoint: mean survival time, dose: 50.0 mg/kg/injection, schedule: Q01DX009 (ip), vehicle: Klucel (hydroxypropylcellulose) (HPC) 96 % of control | endpoint: mean survival time, dose: 100.0 mg/kg/injection, schedule: Q01DX009 (ip), vehicle: Klucel (hydroxypropylcellulose) (HPC) 93 % of control | endpoint: mean survival time, dose: 200.0 mg/kg/injection, schedule: Q01DX009 (ip), vehicle: Klucel (hydroxypropylcellulose) (HPC) 104 % of control

CCOC(=O)C(Cc1ccc(OC)c(OC)c1)C(Cc1ccc(OC)c(OC)c1)C(=O)OCC (centres undefined)
inactive: [1] 96 % of control | [7] 95 % of control | [2] 95 % of control | [8] 93 % of control | [3] 96 % of control | [9] 87 % of control

O=C(C[n+]1cccc(C(=O)c2ccccc2)c1)c1ccccc1
inactive: endpoint: mean survival time, dose: 9.4 mg/kg/injection, schedule: Q01DX009 (ip), vehicle: saline 94 % of control | endpoint: mean survival time, dose: 18.8 mg/kg/injection, schedule: Q01DX009 (ip), vehicle: saline 94 % of control | endpoint: mean survival time, dose: 37.5 mg/kg/injection, schedule: Q01DX009 (ip), vehicle: saline 93 % of control | endpoint: mean survival time, dose: 37.5 mg/kg/injection, schedule: Q04DX003 (ip), vehicle: saline 96 % of control | endpoint: mean survival time, dose: 75.0 mg/kg/injection, schedule: Q01DX001 (ip), vehicle: saline 100 % of control | endpoint: mean survival time, dose: 75.0 mg/kg/injection, schedule: Q04DX003 (ip), vehicle: saline 94 % of control | endpoint: mean survival time, dose: 150.0 mg/kg/injection, schedule: Q01DX001 (ip), vehicle: saline 97 % of control

NC(N)=N/N=C\c1c2ccccc2cc2ccccc12
inactive: endpoint: mean survival time, dose: 0.78 mg/kg/injection, schedule: Q01DX009 (ip), vehicle: water 100 % of control | endpoint: mean survival time, dose: 1.56 mg/kg/injection, schedule: Q01DX009 (ip), vehicle: other 101 % of control | endpoint: mean survival time, dose: 1.56 mg/kg/injection, schedule: Q01DX009 (ip), vehicle: water 101 % of control | endpoint: mean survival time, dose: 3.13 mg/kg/injection, schedule: Q01DX009 (ip), vehicle: other 100 % of control | endpoint: mean survival time, dose: 3.13 mg/kg/injection, schedule: Q01DX009 (ip), vehicle: water 116 % of control | endpoint: mean survival time, dose: 6.25 mg/kg/injection, schedule: Q01DX009 (ip), vehicle: other 106 % of control | endpoint: mean survival time, dose: 12.5 mg/kg/injection, schedule: Q01DX009 (ip), vehicle: other 106 % of control | endpoint: mean survival time, dose: 12.5 mg/kg/injection, schedule: Q01DX009 (ip), vehicle: water 105 % of control | endpoint: mean survival time, dose: 25.0 mg/kg/injection, schedule: Q01DX009 (ip), vehicle: other 111 % of control

O=[N+]([O-])C1(Br)C(c2ccccc2)C=CC(c2ccccc2)C1c1ccccc1 (centres undefined)
inactive: [7] 95 % of control | [8] 95 % of control | [9] 91 % of control

[O-][n+]1ccnc2ccccc21
inactive: [10] 105 % of control | [11] 116 % of control | endpoint: mean survival time, dose: 400.0 mg/kg/injection, schedule: Q04DX002 (ip), vehicle: saline 108 % of control

Cc1cccc(NC(=O)c2ccccc2)n1
inactive: [4] 97 % of control | [5] 101 % of control | [6] 103 % of control

Oc1ccc(Cl)cc1Cn1ccnc1
inactive: endpoint: mean survival time, dose: 50.0 mg/kg/injection, schedule: Q01DX001 (ip), vehicle: saline 111 % of control | endpoint: mean survival time, dose: 50.0 mg/kg/injection, schedule: Q01DX009 (ip), vehicle: saline 104 % of control | [12] 106 % of control | endpoint: mean survival time, dose: 100.0 mg/kg/injection, schedule: Q01DX001 (ip), vehicle: saline 100 % of control | endpoint: mean survival time, dose: 100.0 mg/kg/injection, schedule: Q01DX009 (ip), vehicle: saline 95 % of control and 110 % of control | [10] 115 % of control and 101 % of control | endpoint: mean survival time, dose: 100.0 mg/kg/injection, schedule: Q04DX003 (ip), vehicle: saline 101 % of control | endpoint: mean survival time, dose: 200.0 mg/kg/injection, schedule: Q01DX001 (ip), vehicle: saline 104 % of control | endpoint: mean survival time, dose: 200.0 mg/kg/injection, schedule: Q01DX009 (ip), vehicle: saline 93 % of control and 109 % of control | [11] 103 % of control and 112 % of control | endpoint: mean survival time, dose: 200.0 mg/kg/injection, schedule: Q04DX003 (ip), vehicle: saline 113 % of control

C#CC(OC(C)=O)C1OC(n2cnc3c(Cl)nc(Cl)nc32)C(OC(C)=O)C1OC(C)=O (centres undefined)
inactive: endpoint: median survival time, dose: 12.5 mg/kg/injection, schedule: Q01DX005 (ip), vehicle: distilled water + Tween-80 109 % of control and 103 % of control | endpoint: median survival time, dose: 25.0 mg/kg/injection, schedule: Q01DX005 (ip), vehicle: distilled water + Tween-80 107 % of control and 100 % of control | endpoint: median survival time, dose: 50.0 mg/kg/injection, schedule: Q01DX005 (ip), vehicle: distilled water + Tween-80 103 % of control | endpoint: median survival time, dose: 100.0 mg/kg/injection, schedule: Q01DX005 (ip), vehicle: distilled water + Tween-80 108 % of control and 111 % of control | endpoint: median survival time, dose: 200.0 mg/kg/injection, schedule: Q01DX005 (ip), vehicle: distilled water + Tween-80 102 % of control and 111 % of control

Cc1ccc(S(=O)(=O)N(C)Cc2ccccc2)cc1
inactive: [1] 96 % of control | [2] 106 % of control | [3] 98 % of control

O=C(O)COc1ccc(F)cc1Br
inactive: [13] 93 % of control | endpoint: mean survival time, dose: 200.0 mg/kg/injection, schedule: Q04DX002 (ip), vehicle: saline with Tween-80 93 % of control | endpoint: mean survival time, dose: 400.0 mg/kg/injection, schedule: Q04DX002 (ip), vehicle: saline with Tween-80 93 % of control

C[n+]1c2ccccc2cc2ccccc21
inactive: endpoint: mean survival time, dose: 12.0 mg/kg/injection, schedule: Q04DX003 (ip), vehicle: saline 102 % of control | [14] 98 % of control

CC1CCCN(N=Nc2ccc(Br)cc2-c2nc(N)c3cc(Br)ccc3n2)C1 (centres undefined)
inactive: endpoint: mean survival time, dose: 100.0 mg/kg/injection, schedule: Q01DX001 (ip), vehicle: Klucel (hydroxypropylcellulose) (HPC) 103 % of control | endpoint: mean survival time, dose: 400.0 mg/kg/injection, schedule: Q01DX001 (ip), vehicle: Klucel (hydroxypropylcellulose) (HPC) 90 % of control

Brc1c2ccccc2c(Br)c2ccccc12
inactive: endpoint: mean survival time, dose: 100.0 mg/kg/injection, schedule: Q04DX002 (ip), vehicle: Klucel (hydroxypropylcellulose) (HPC) 86 % of control | endpoint: mean survival time, dose: 200.0 mg/kg/injection, schedule: Q04DX002 (ip), vehicle: Klucel (hydroxypropylcellulose) (HPC) 114 % of control | endpoint: mean survival time, dose: 400.0 mg/kg/injection, schedule: Q04DX002 (ip), vehicle: Klucel (hydroxypropylcellulose) (HPC) 86 % of control

CC/C=C(\C)CC(C)O (centres undefined)
inactive: endpoint: mean survival time, dose: 25.0 mg/kg/injection, schedule: Q04DX002 (ip), vehicle: saline with Tween-80 93 % of control | endpoint: mean survival time, dose: 50.0 mg/kg/injection, schedule: Q04DX002 (ip), vehicle: saline with Tween-80 89 % of control | [13] 89 % of control

Cc1cnc([Se])[nH]c1=O
inactive: endpoint: mean survival time, dose: 25.0 mg/kg/injection, schedule: Q01DX005 (ip), vehicle: water 87 % of control | endpoint: mean survival time, dose: 50.0 mg/kg/injection, schedule: Q01DX005 (ip), vehicle: water 90 % of control

Cc1c(C)c2c(c(C)c1O)CC(CC(=O)CO)CO2 (centres undefined)
inactive: [1] 93 % of control | [2] 100 % of control | [3] 93 % of control

[N-]=[N+]=Nc1cc(NC(=O)c2ccccc2)ccc1NC(=O)c1ccccc1
inactive: [6] 101 % of control | [1] 96 % of control | [2] 104 % of control

CCC[CH2][Sn]([CH2]CCC)[CH2]CCC.CCC[CH2][Sn]([CH2]CCC)[CH2]CCC
inactive: endpoint: mean survival time, dose: 12.5 mg/kg/injection, schedule: Q04DX003 (ip), vehicle: Klucel (hydroxypropylcellulose) (HPC) 93 % of control | [14] 97 % of control | [12] 97 % of control
